These results are taken from US20250026721A1, “COMPOUNDS AND METHODS FOR MODULATING RAS-PI3K” (Vividion Therapeutics, Inc., priority 2023, published 2025).

In test [1] the test system is pAKT(S473) in H358 cell line. Kind of test: In vitro Phospho-AKT(S473) HTRF analysis in H358 cells. The settings on record: Homo sapiens, NCI-H358, 0.5 h; for IC50: H358 cells, 30 minutes at 37° C.; for Emax: read-out: H358 pAKT Imax % control. The test is classed as cell-based. On the procedure:
Example 5. In Vitro Phosgho-AKT(S473) Analysis
Functional activity of the compounds to inhibit pAKT were assessed in FaDu or H358 cell lines as indicated below.
• Complete Media • FBS, Corning catalog #35-010-CV • Anti-Anti, Gibco catalog #15240-062 • 96 well plate, Corning catalog #3610 • TrypLE, Gibco catalog #12604013 • Phospho-AKT(S473) HTRF kit, Cisbio catalog #64AKSPET
Cells were detached from the tissue culture flask with TrypLE. The cells were pelleted at 500×g for 5 min, TrypLe was removed and then resuspended in the necessary volume of media+1% FBS to give the appropriate cell density (17,500 cells/mL for FaDu; 20,000 cells/mL for H358). 100 μL of cell suspension/well was dispensed into the 96-well plate while keeping the outer wells of the plate free of cells and filled with PBS to prevent evaporation of interior wells. The plate was incubated at 37° C. and allowed to adhere overnight. The cells were treated with a dose response of compound and incubated at 37° C. for 30 minutes. The cells were then processed and pAKT(S473) levels were assessed following the specifications of the Cisbio HTRF kit.

In the next test the target is T1, PIK3CA (Homo sapiens, UniProt P42336).
T1 construct: endogenous in cells; host or cells: Jurkat cell lysate
T1 sequence (P42336 whole entry): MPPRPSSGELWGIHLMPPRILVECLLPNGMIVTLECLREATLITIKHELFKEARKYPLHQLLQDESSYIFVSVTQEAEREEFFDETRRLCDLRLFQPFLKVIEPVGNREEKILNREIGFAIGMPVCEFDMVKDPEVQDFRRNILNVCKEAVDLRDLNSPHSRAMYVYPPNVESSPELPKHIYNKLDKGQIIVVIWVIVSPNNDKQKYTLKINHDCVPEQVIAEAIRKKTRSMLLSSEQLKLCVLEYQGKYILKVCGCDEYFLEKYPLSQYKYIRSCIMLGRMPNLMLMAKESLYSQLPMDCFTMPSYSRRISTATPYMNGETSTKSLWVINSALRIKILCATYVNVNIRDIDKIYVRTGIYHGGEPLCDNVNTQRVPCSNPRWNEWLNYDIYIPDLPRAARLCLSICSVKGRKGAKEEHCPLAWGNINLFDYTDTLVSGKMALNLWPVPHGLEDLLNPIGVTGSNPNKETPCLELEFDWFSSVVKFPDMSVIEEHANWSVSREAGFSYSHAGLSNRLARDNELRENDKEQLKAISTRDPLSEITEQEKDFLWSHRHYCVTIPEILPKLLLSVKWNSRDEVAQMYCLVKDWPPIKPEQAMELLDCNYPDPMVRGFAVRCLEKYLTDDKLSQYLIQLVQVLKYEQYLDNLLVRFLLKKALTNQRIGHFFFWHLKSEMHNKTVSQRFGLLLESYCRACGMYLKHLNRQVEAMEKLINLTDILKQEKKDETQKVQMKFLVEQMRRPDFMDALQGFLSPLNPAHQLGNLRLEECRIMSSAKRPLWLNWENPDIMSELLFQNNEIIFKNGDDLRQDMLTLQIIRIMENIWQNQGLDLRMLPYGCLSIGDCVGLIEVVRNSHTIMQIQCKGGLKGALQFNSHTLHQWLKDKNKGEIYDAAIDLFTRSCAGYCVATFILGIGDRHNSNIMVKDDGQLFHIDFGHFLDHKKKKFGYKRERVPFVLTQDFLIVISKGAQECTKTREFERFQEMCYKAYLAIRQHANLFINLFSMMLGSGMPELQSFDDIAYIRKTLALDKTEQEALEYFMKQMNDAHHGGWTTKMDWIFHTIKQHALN
T1 sequence (P27986 whole entry partner): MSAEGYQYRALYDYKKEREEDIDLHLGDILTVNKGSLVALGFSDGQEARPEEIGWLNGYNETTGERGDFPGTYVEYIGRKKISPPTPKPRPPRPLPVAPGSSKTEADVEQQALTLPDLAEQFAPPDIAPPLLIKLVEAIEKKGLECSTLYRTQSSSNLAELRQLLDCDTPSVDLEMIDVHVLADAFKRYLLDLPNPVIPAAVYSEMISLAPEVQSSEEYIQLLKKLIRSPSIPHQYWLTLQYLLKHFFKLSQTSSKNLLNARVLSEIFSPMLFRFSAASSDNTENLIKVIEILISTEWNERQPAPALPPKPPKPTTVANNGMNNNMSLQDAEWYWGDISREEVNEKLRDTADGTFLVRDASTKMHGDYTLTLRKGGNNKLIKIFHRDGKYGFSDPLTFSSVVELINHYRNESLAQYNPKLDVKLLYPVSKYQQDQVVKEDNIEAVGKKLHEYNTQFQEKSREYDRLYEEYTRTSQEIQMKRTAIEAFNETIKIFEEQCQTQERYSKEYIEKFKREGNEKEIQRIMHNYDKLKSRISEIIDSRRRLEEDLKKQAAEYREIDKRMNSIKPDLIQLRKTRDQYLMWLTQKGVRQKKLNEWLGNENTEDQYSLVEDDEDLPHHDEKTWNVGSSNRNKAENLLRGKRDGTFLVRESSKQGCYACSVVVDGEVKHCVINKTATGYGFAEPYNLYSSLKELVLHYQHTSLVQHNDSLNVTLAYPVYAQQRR
Kind of test: In vitro ELISA target engagement assay for PIK3CA in Jurkat cellular lysate (competition with PIK3CA Biotin Probe). Conditions: 1 hour at rt, then 500 nM PIK3CA Biotin Probe, read-out: Elisa Target Engagement Assay (TE50). The test is classed as binding. Put shortly: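 Jurkat lysate from sonicated frozen cells was preincubated 1 h at rt with serially diluted compound up to 200 μM, then labelled 1 h at rt with PIK3CA biotin probe at 500 nM final. Probe-bound PIK3CA was captured on antibody-coated plates and detected with Neutravidin-HRP luminescence; TE50 derived from the dose response.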

The test system of test [2] is pAKT(S473) in FaDu cell line. Kind of test: In vitro Phospho-AKT(S473) HTRF analysis in FaDu cells. The settings on record: Homo sapiens, 0.5 h; for IC50: FaDu cells, 30 minutes at 37° C.; for Emax: FaDu, read-out: FaDu pAKT Imax % control. It counts as cell-based. Put shortly: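 FaDu or H358 cells were plated overnight in medium with 1% FBS, then exposed to a compound dose response for 30 minutes at 37° C. Phospho-AKT(S473) levels were measured by HTRF.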

For a further test, the target named is T2, PIK3CA_C242 (Homo sapiens, UniProt P42336).
T2 construct: endogenous in cells; host or cells: Jurkat cell lysate
T2 sequence (P42336 whole entry): as the sequence (P42336 whole entry) above
T2 sequence (P27986 whole entry partner): as the sequence (P27986 whole entry partner) above
Kind of test: Proteomic TE50 (IA-DTB / TMT mass spectrometry) in Jurkat cell lysate. It counts as binding. Conditions: 1 hour at rt, 7-point dose response. Put shortly:
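Jurkat lysate (500 μg) treated with compound (7-point, 1:5 dilutions) for 1 h at rt, then labelled with 200 μM IA-DTB for 1 h. After digestion and streptavidin enrichment, the C242 peptide was quantified by targeted MS3 TMT. TE50 was derived from reporter-ion S/N dose-response curves.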

Turning to `Cc1ccccc1[C@@H]1CN(CC(F)(F)F)C[C@@H]1C(=O)N1CCC[C@](F)(C(=O)N[C@H](C)/C=C\S(C)(=O)=O)CC1` (single isomer, unassigned) [Compound 224, (R)-4-fluoro-N-((R,Z)-4-(methylsulfonyl)but-3-en-2-yl)-1-((3*R,4*R)-4-(o-tolyl)-1-(2,2,2-trifluoroethyl)pyrrolidine-3-carbonyl) azepane-4-carboxamide], in test [1], the IC50 was 326 nM and the Emax is 81.2%. Besides, the IC50 on PIK3CA is 520 nM.

For `C[C@H](/C=C\S(C)(=O)=O)NC(=O)[C@@]1(F)CCCN(C(=O)[C@H]2CN(CC(C)(F)F)C[C@H]2c2c(F)cccc2Cl)CC1` (single isomer, unassigned) [Compound 183], in test [1], the IC50 came to 56.6 nM and the Emax was 93.2%. Also, the IC50 on PIK3CA was found to be 78 nM.

Consider `C[C@H](/C=C\S(C)(=O)=O)NC(=O)[C@@]1(F)CCCN(C(=O)[C@H]2CN(CC3(F)CC3)C[C@H]2c2ccccc2Cl)CC1` [Compound 185, (R)-1-((3R,4R)-4-(2-chlorophenyl)-1-((1-fluorocyclopropyl)methyl)pyrrolidine-3-carbonyl)-4-fluoro-N-((R,Z)-4-(methylsulfonyl)but-3-en-2-yl)azepane-4-carboxamide], for which the values for the IC50 (in test [1]; at PIK3CA) were 123 nM and 290 nM, respectively. The Emax in test [1] worked out at 95.6%.

Take `C[C@H](/C=C\S(C)(=O)=O)NC(=O)[C@@]1(F)CCCN(C(=O)[C@@H]2CN(CC(C)(F)F)C[C@@H]2c2cccc(F)c2Cl)CC1` (single isomer, unassigned) [Compound 222, (R)-1-((3*S,4*S)-4-(2-chloro-3-fluorophenyl)-1-(2,2-difluoropropyl)pyrrolidine-3-carbonyl)-4-fluoro-N-((R,Z)-4-(methylsulfonyl)but-3-en-2-yl)azepane-4-carboxamide]: in test [1], the IC50 was 146 nM and the Emax worked out at 91%. In addition, the IC50 on PIK3CA came to 210 nM.

Turning to `C[C@H](/C=C\S(C)(=O)=O)NC(=O)C1(F)CCN(S(=O)(=O)c2cnc(C(F)(F)F)cc2-c2ccccc2Cl)CC1` [Compound 207, (R,Z)-1-((4-(2-chlorophenyl)-6-(trifluoromethyl)pyridin-3-yl)sulfonyl)-4-fluoro-N-(4-(methylsulfonyl)but-3-en-2-yl)piperidine-4-carboxamide], the IC50 at PIK3CA turned out to be 184 nM; in test [2] it was 803 nM; at PIK3CA_C242, 150 nM. Moreover, the Emax in test [2] amounted to 75.2%.

In the case of `C[C@H](/C=C\S(C)(=O)=O)NC(=O)C1(F)CCN(S(=O)(=O)c2ccc(C#N)cc2-c2ccccc2Cl)CC1` [Compound 35, (R,Z)-1-((2′-chloro-5-cyano-[1,1′-biphenyl]-2-yl)sulfonyl)-4-fluoro-N-(4-(methylsulfonyl)but-3-en-2-yl)piperidine-4-carboxamide], the figures for the IC50 (on PIK3CA; in test [2]; against PIK3CA_C242) were 165 nM, 330 nM and 140 nM, respectively. In addition, in test [2], the Emax is 103%.

Regarding `C[C@H](/C=C\S(C)(=O)=O)NC(=O)[C@@]1(F)CCCN(C(=O)N2CCN(CC(F)(F)F)C[C@H]2c2ccccc2Cl)CC1` (single isomer, unassigned) [Compound 309, (R)-1-((*R)-2-(2-chlorophenyl)-4-(2,2,2-trifluoroethyl)piperazine-1-carbonyl)-4-fluoro-N—((R,Z)-4-(methylsulfonyl)but-3-en-2-yl)azepane-4-carboxamide], in test [1], the IC50 came out at 276 nM and the Emax worked out at 91.8%. The IC50 on PIK3CA is 390 nM.

Take `C[C@H]1C[C@](F)(C(=O)N[C@@H]2C=CS(=O)(=O)C2)CCN1C(=O)[C@H]1CN(CC(F)(F)F)C[C@H]1c1cccc(F)c1Cl` (single isomer, unassigned) [Compound 175, (2*S,4*S)-1-((3*R,4*R)-4-(2-chloro-3-fluorophenyl)-1-(2,2,2-trifluoroethyl)pyrrolidine-3-carbonyl)-N-((R)-1,1-dioxido-2,3-dihydrothiophen-3-yl)-4-fluoro-2-methylpiperidine-4-carboxamide]: in test [1], the IC50 came out at 151 nM and the Emax is 75.6%. For the same compound, the IC50 at PIK3CA stood at 620 nM.

As to `C[C@H](/C=C\S(C)(=O)=O)NC(=O)C1(F)CCN(S(=O)(=O)c2ccc(C(F)(F)F)cc2-c2ccccc2Cl)CC1` [Compound 33, (R,Z)-1-((2′-chloro-5-(trifluoromethyl)-[1,1′-biphenyl]-2-yl)sulfonyl)-4-fluoro-N-(4-(methylsulfonyl)but-3-en-2-yl)piperidine-4-carboxamide], the figures for the IC50 (at PIK3CA; in test [2]; at PIK3CA_C242) were 158 nM, 409 nM and 133 nM, respectively. In addition, the Emax in test [2] amounted to 86.2%.

As to `C[C@H](/C=C\S(C)(=O)=O)NC(=O)C1(F)CCN(C(=O)[C@H]2CCC(C)(C)C[C@@H]2c2ccccc2Cl)CC1` (racemic) [Compound 255, 1-((1*S,2*S)-2-(2-chlorophenyl)-4,4-dimethylcyclohexane-1-carbonyl)-4-fluoro-N-((R,Z)-4-(methylsulfonyl)but-3-en-2-yl)piperidine-4-carboxamide], the IC50 in test [1] came to 67 nM; on PIK3CA it was 430 nM. Further, the Emax in test [1] came to 86.7%.

`COc1ccc(S(=O)(=O)N2CC[C@@](F)(C(=O)N[C@H](C)/C=C\S(C)(=O)=O)C[C@H]2C)c(-c2ccccc2Cl)c1` [Compound 141, (2R,4S)-1-[2-(2-chlorophenyl)-4-methoxy-phenyl]sulfonyl-4-fluoro-2-methyl-N—[(Z,1R)-1-methyl-3-methylsulfonyl-allyl]piperidine-4-carboxamide]: the IC50 on PIK3CA is 75 nM; in test [2], 82.4 nM; against PIK3CA_C242 it was 50 nM. The Emax in test [2] is 102%.

For the compound `COc1cc(-c2ccccc2Cl)c(S(=O)(=O)N2CCC(F)(C(=O)N[C@@H](C)/C=C\S(C)(=O)=O)CC2)cn1` [Compound 187, (S,Z)-1-((4-(2-chlorophenyl)-6-methoxypyridin-3-yl)sulfonyl)-4-fluoro-N-(4-(methylsulfonyl)but-3-en-2-yl)piperidine-4-carboxamide], in test [2], the IC50 was determined as 152 nM and the Emax worked out at 70.1%. The IC50 at PIK3CA_C242 was determined as 68.1 nM.

Consider `C[C@H](/C=C\S(C)(=O)=O)NC(=O)[C@@]1(F)CCCN(C(=O)[C@H]2CN(CC(F)(F)F)C[C@H]2c2ccccc2F)CC1` (single isomer, unassigned) [Compound 223, (R)-4-fluoro-1-((3*R,4*R)-4-(2-fluorophenyl)-1-(2,2,2-trifluoroethyl)pyrrolidine-3-carbonyl)-N-((R,Z)-4-(methylsulfonyl)but-3-en-2-yl) azepane-4-carboxamide], for which, in test [1], the IC50 is 346 nM and the Emax was 87.5%. Also, the IC50 on PIK3CA was 510 nM.

As to `C[C@H](/C=C\S(C)(=O)=O)NC(=O)C1(F)CCN(C(=O)[C@H]2CN(CC(F)(F)F)C[C@H]2c2ccccc2Cl)C1` (stereo partly drawn) [Compound 314, 1-((3R,4R)-4-(2-chlorophenyl)-1-(2,2,2-trifluoroethyl)pyrrolidine-3-carbonyl)-3-fluoro-N-((R,Z)-4-(methylsulfonyl)but-3-en-2-yl)pyrrolidine-3-carboxamide], in test [1], the IC50 worked out at 622 nM and the Emax stood at 100%. The IC50 on PIK3CA stood at 1100 nM.

In the case of `COc1ccc(S(=O)(=O)N2CC[C@@](F)(C(=O)N[C@H](C)/C=C/C(=O)N3CC(F)(F)C3)C[C@H]2C)c(-c2ccccc2Cl)c1` [Compound 151, (2R,4S)-1-((2′-chloro-5-methoxy-[1,1′-biphenyl]-2-yl)sulfonyl)-N-((R,E)-5-(3,3-difluoroazetidin-1-yl)-5-oxopent-3-en-2-yl)-4-fluoro-2-methylpiperidine-4-carboxamide], the IC50 at PIK3CA was 226 nM; in test [2], 284 nM; against PIK3CA_C242 it was 200 nM. In addition, the Emax in test [2] is 100%.

With `C[C@H](/C=C/C(=O)N1CC(F)(F)C1)NC(=O)C1(F)CCN(S(=O)(=O)c2ccc(C(F)(F)F)cc2-c2ccccc2Cl)CC1` [Compound 134, 1-[2-(2-chlorophenyl)-4-(trifluoromethyl)phenyl]sulfonyl-4-fluoro-N—[(E,1R)-4-(3,3-difluoroazetidin-1-yl)-1-methyl-4-oxo-but-2-enyl]piperidine-4-carboxamide], the IC50 at PIK3CA stood at 177 nM; in test [2] it was 348 nM; against PIK3CA_C242, 150 nM. The Emax in test [2] is 96.3%.
